Experimental data from PMC8163982, “Partial agonism improves the anti-hyperglycaemic efficacy of an oxyntomodulin-derived GLP-1R/GCGR co-agonist” (Molecular Metabolism, 2021).
Where a SMILES comes first, the peptide text is derived from it. [ ]: non-standard residue; d: D form. Aib = CC(C)(N)C(=O)O

Key:
GLP-1R = GLP-1R (Homo sapiens, UniProt P43220); assay: NanoBiT mini-Gs recruitment to GLP-1R-SmBiT in HEK293T cells; type: cell-based; details: SRB103 pair, mean ± SEM, n = 6
Experimental: The assay was performed as previously described. […] (gifts from Professor Nevin Lambert, Medical College of Georgia) or 0.05 μg of GLP-1R-SmBiT and 0.05 μg of LgBiT-β-arrestin-2 (Promega) plus 0.9 μg of pcDNA3.1 for 24 h. The cells were detached with EDTA, resuspended in HBSS, and furimazine (Promega) was added at a 1:50 dilution from the manufacturer's pre-prepared stock. After dispensing into 96-well white plates, a baseline read of the luminescent signals was serially recorded for 5 min using a FlexStation 3 instrument at 37 °C before the indicated concentration of ligand was added, after which the signals were repeatedly recorded for 30 min. […] Bias was calculated using two approaches. First, the log max/EC50 method was used, with the ratio of Emax to EC50 from 3-parameter fits for each ligand used to quantify agonism. After log10 transformation, responses were expressed relative to the reference agonist on a per assay basis to obtain Δlog(Emax/EC50) for each pathway. Pathway-specific values were then expressed relative to each other to obtain ΔΔlog(Emax/EC50), that is, the log bias factor. Second, a method derived from kinetic curve fitting was used. Here, kinetic responses for a single maximal agonist concentration were normalised at each time point to the vehicle response prior to curve fitting. […]

[1] = Pharmacokinetic study in mice (plasma radioimmunoassay); type: in vivo, mouse; details: 0.5 mg/kg IP
Experimental: The mice were administered 0.5 mg/kg of peptide via IP injection. Four h after injection, blood was acquired by venesection into lithium heparin-coated microvette tubes (Sarstedt, Germany). In a separate study, male Sprague Dawley rats (average weight 250 g, obtained from Charles River) were administered 4 mg/kg of peptide SC mixed in aqueous ZnCl2 solution to a molar ratio of 0.7:1 (peptide:ZnCl2), and blood was collected by venesection at several time points up to 72 h. Plasma was separated by centrifugation at 10,000 g for 8 min at 4 °C. Plasma concentrations were assessed by radioimmunoassay using an in-house assay as previously described using standard curves generated from each SRB103 peptide to ensure that equivalent recovery was obtained.

GLP-1R, sequence (P43220 24-463): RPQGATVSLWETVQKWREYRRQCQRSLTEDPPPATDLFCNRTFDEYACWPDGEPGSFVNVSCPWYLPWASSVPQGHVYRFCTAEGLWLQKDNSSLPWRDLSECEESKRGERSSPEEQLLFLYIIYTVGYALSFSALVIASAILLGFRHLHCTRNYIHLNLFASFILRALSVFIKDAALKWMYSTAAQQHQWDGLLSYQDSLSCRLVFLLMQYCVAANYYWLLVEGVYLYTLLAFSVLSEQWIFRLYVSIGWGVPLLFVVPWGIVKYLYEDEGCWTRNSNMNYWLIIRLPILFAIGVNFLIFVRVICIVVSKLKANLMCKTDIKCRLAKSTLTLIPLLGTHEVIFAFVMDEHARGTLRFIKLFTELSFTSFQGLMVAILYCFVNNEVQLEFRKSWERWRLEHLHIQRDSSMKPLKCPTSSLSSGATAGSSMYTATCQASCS

In the case of CC[C@H](C)[C@H](NC(=O)[C@H](Cc1ccccc1)NC(=O)[C@H](CCC(=O)O)NC(=O)[C@H](CCC(N)=O)NC(=O)[C@H](C)NC(=O)[C@H](CCCNC(=N)N)NC(=O)[C@H](CCCCN)NC(=O)[C@H](C)NC(=O)[C@H](CC(=O)O)NC(=O)[C@H](CC(C)C)NC(=O)[C@H](Cc1ccc(O)cc1)NC(=O)[C@H](CCCCN)NC(=O)[C@H](CO)NC(=O)[C@H](Cc1ccc(O)cc1)NC(=O)[C@H](CC(=O)O)NC(=O)[C@H](CO)NC(=O)[C@@H](NC(=O)[C@H](Cc1ccccc1)NC(=O)[C@@H](NC(=O)CNC(=O)[C@H](Cc1c[nH]cn1)NC(=O)C(C)(C)NC(=O)[C@@H](N)Cc1c[nH]cn1)[C@@H](C)O)[C@@H](C)O)C(=O)N[C@@H](CCC(=O)O)C(=O)N[C@@H](Cc1c[nH]c2ccccc12)C(=O)N[C@@H](CC(C)C)C(=O)N[C@@H](CC(C)C)C(=O)N[C@@H](C)C(=O)NCC(=O)N[C@@H](Cc1c[nH]cn1)C(=O)N[C@@H](Cc1c[nH]cn1)C(=O)N[C@@H](Cc1c[nH]cn1)C(=O)N[C@@H](Cc1c[nH]cn1)C(=O)N[C@@H](Cc1c[nH]cn1)C(=O)N1CCC[C@H]1C(=O)N[C@@H](CO)C(=O)N[C@@H](Cc1c[nH]c2ccccc12)C(=O)O [SRB103H] (H-H[Aib]HGTFTSDYSKYLDAKRAQEFIEWLLAGHHHHHPSW-OH), the Emax (GLP-1R; HEK-293T, normalised to globally fitted maximum response) is reported as 103 ± 4%, the EC50 (GLP-1R; 3-parameter fit, read-out: GLP-1R mini-Gs (HEK293T) pEC50 (converted)) is reported as 79.4 nM and the “Plasma concentration 4 h after a single dose” value [1] is reported as “the same”.
